Laboratory results reported in PMC8330742, “New benzothieno[2,3-c]pyridines as non-steroidal CYP17 inhibitors: design, synthesis, anticancer screening, apoptosis induction, and in silico ADME profile studies” (Journal of Enzyme Inhibition and Medicinal Chemistry, 2021).

Columns and labels:
Experiment in all cases: NCI-60 SRB screen;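 as to IC50: half-maximal inhibitory concentration read as cell viability unlike GI50 net growth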
A549/ATCC = assay type: cell-based, human
OVCAR-3 = assay type: cell-based, human; conditions: OVCAR-3
SW-620 = assay type: cell-based; conditions: SW-620
HL-60(TB) = assay type: cell-based, human
NCI-H522 = assay type: cell-based, human; conditions: NCI-H522
SK-MEL-5 = assay type: cell-based, human; conditions: SK-MEL-5
SF-295 = assay type: cell-based, human; conditions: SF-295
HCT-116 = assay type: cell-based, human; conditions: HCT-116
LOX IMVI = assay type: cell-based, human
HOP-92 = assay type: cell-based, human; conditions: HOP-92
OVCAR-4 = assay type: cell-based, human; conditions: OVCAR-4
SF-268 = assay type: cell-based, human; conditions: SF-268
NCI-H460 = assay type: cell-based, human; conditions: NCI-H460
HCC-2998 = assay type: cell-based, human; conditions: HCC-2998
NCI-H322M = assay type: cell-based, human
MDA-MB-435 = assay type: cell-based
HT-29 = assay type: cell-based
CCRF-CEM = assay type: cell-based
NCI-H226 = assay type: cell-based, human; conditions: NCI-H226
COLO 205 = assay type: cell-based, human; conditions: COLO 205
SK-OV-3 = assay type: cell-based, human; conditions: SK-OV-3
OVCAR-8 = assay type: cell-based, human; conditions: Homo sapiens, OVCAR-8
[1] = Homo sapiens, single dose 10^−5 M, read-out: Growth inhibition (%)
[2] = Homo sapiens, HT-29, HT29, five dose

Q: How did the GI50 (A549/ATCC; Homo sapiens, five dose) turn out when `N#CC1C(=O)NC(c2ccccc2[N+](=O)[O-])c2sc3c(F)cccc3c21` (stereo not shown) [Compound 5c, 4-Cyano-8-fluoro-1-(2-nitrophenyl)-1,2-dihydro[1]benzothieno[2,3-c] pyridin-3(4H)-one] was run?
A: 1.31 µM

Q: What about the IC50 (A549/ATCC; Homo sapiens, five dose) of the same compound?
A: 2.34 µM

Q: And the inhibition at 10 µM (A549/ATCC; [1])?
A: 52.8%

Q: And the TGI (A549/ATCC; five dose)?
A: 100 µM

Q: And the GI50 (OVCAR-3; Homo sapiens, five dose)?
A: 0.32 µM

Q: What about the IC50 (OVCAR-3; Homo sapiens, five dose) of the same compound?
A: 0.676 µM

Q: What about the inhibition at 10 µM (OVCAR-3; [1]) of the same compound?
A: 114%

Q: And the TGI (OVCAR-3; five dose)?
A: 87.80 µM

Q: What about the GI50 (SW-620; Homo sapiens, five dose) of the same compound?
A: 0.37 µM

Q: And the IC50 (SW-620; Homo sapiens, five dose)?
A: 0.676 µM

Q: What about the LC50 (50% lethal concentration) (SW-620; Homo sapiens, five dose) of the same compound?
A: > 100 µM

Q: And the inhibition at 10 µM (SW-620; [1])?
A: 88.1%

Q: And the TGI (SW-620; five dose)?
A: 100 µM

Q: And the TGI (HL-60(TB); HL-60(TB), five dose)?
A: 100 µM

Q: What about the GI50 (HL-60(TB); Homo sapiens, HL-60) of the same compound?
A: 14.2 µM

Q: What about the IC50 (HL-60(TB); Homo sapiens, HL-60) of the same compound?
A: 28.2 µM

Q: What about the inhibition at 10 µM (HL-60(TB); Homo sapiens, HL-60, read-out: Growth inhibition (%)) of the same compound?
A: 18.8%

Q: And the GI50 (NCI-H522; Homo sapiens, five dose)?
A: 18.4 µM

Q: And the IC50 (NCI-H522; Homo sapiens, five dose)?
A: 41.7 µM

Q: And the inhibition at 10 µM (NCI-H522; [1])?
A: 17.3%

Q: What about the TGI (NCI-H522; five dose) of the same compound?
A: 100 µM

Q: And the GI50 (SK-MEL-5; Homo sapiens, five dose)?
A: 13 µM

Q: And the IC50 (SK-MEL-5; Homo sapiens, five dose)?
A: 20.9 µM

Q: And the inhibition at 10 µM (SK-MEL-5; [1])?
A: 24.9%

Q: And the TGI (SK-MEL-5; five dose)?
A: 67.60 µM

Q: What about the GI50 (SF-295; Homo sapiens, five dose) of the same compound?
A: 0.6 µM

Q: And the IC50 (SF-295; Homo sapiens, five dose)?
A: 10.5 µM

Q: And the inhibition at 10 µM (SF-295; [1])?
A: 79.2%

Q: And the TGI (SF-295; five dose)?
A: 100 µM

Q: And the TGI (HCT-116; five dose)?
A: 44.50 µM

Q: And the GI50 (HCT-116; Homo sapiens, five dose)?
A: 0.14 µM

Q: And the IC50 (HCT-116; Homo sapiens, five dose)?
A: 0.195 µM

Q: What about the inhibition at 10 µM (HCT-116; [1]) of the same compound?
A: 89%

Q: What about the GI50 (LOX IMVI; Homo sapiens, five dose) of the same compound?
A: 15.3 µM

Q: And the IC50 (LOX IMVI; Homo sapiens, five dose)?
A: 25.1 µM

Q: And the inhibition at 10 µM (LOX IMVI; [1])?
A: 8.64%

Q: And the TGI (LOX IMVI; five dose)?
A: 73.20 µM

Q: And the TGI (HOP-92; five dose)?
A: 100 µM

Q: What about the GI50 (HOP-92; Homo sapiens, five dose) of the same compound?
A: 12.6 µM

Q: What about the IC50 (HOP-92; Homo sapiens, five dose) of the same compound?
A: 79.4 µM

Q: What about the inhibition at 10 µM (HOP-92; [1]) of the same compound?
A: 115%

Q: What about the GI50 (OVCAR-4; Homo sapiens, five dose) of the same compound?
A: 1.61 µM

Q: And the IC50 (OVCAR-4; Homo sapiens, five dose)?
A: 24.5 µM

Q: What about the inhibition at 10 µM (OVCAR-4; [1]) of the same compound?
A: 100%

Q: What about the TGI (OVCAR-4; five dose) of the same compound?
A: 100 µM

Q: What about the GI50 (SF-268; Homo sapiens, five dose) of the same compound?
A: 16.4 µM

Q: And the IC50 (SF-268; Homo sapiens, five dose)?
A: 46.8 µM

Q: And the inhibition at 10 µM (SF-268; [1])?
A: 14.4%

Q: What about the TGI (SF-268; five dose) of the same compound?
A: 100 µM

Q: And the GI50 (NCI-H460; Homo sapiens, five dose)?
A: 0.29 µM

Q: And the IC50 (NCI-H460; Homo sapiens, five dose)?
A: 0.372 µM

Q: And the inhibition at 10 µM (NCI-H460; [1])?
A: 11.5%

Q: And the TGI (NCI-H460; five dose)?
A: 100 µM

Q: What about the TGI (HCC-2998; five dose) of the same compound?
A: 94.90 µM

Q: What about the GI50 (HCC-2998; Homo sapiens, five dose) of the same compound?
A: 17.4 µM

Q: And the IC50 (HCC-2998; Homo sapiens, five dose)?
A: 33.9 µM

Q: What about the inhibition at 10 µM (HCC-2998; [1]) of the same compound?
A: 6.16%

Q: What about the GI50 (NCI-H322M; Homo sapiens, five dose) of the same compound?
A: 7.37 µM

Q: And the IC50 (NCI-H322M; Homo sapiens, five dose)?
A: 23.4 µM

Q: And the inhibition at 10 µM (NCI-H322M; [1])?
A: 98%

Q: And the TGI (NCI-H322M; five dose)?
A: 100 µM

Q: And the GI50 (MDA-MB-435; Homo sapiens, MDA-MB-435)?
A: 27.2 µM

Q: What about the IC50 (MDA-MB-435; Homo sapiens, MDA-MB-435) of the same compound?
A: 38 µM

Q: What about the inhibition at 10 µM (MDA-MB-435; Homo sapiens, MDA-MB-435, read-out: Growth inhibition (%)) of the same compound?
A: -1.7%

Q: And the LC50 (50% lethal concentration) (MDA-MB-435; Homo sapiens, MDA-MB-435, five dose)?
A: > 100 µM

Q: What about the TGI (MDA-MB-435; MDA-MB-435, five dose) of the same compound?
A: 100 µM

Q: What about the TGI (HT-29; HT29, five dose) of the same compound?
A: 100 µM

Q: What about the GI50 (HT-29; [2]) of the same compound?
A: 19.6 µM

Q: And the IC50 (HT-29; [2])?
A: 25.7 µM

Q: And the LC50 (concentration killing 50% of cells) (HT-29; [2])?
A: > 100 µM

Q: What about the inhibition at 10 µM (HT-29; Homo sapiens, HT-29, single dose 10^−5 M, read-out: Growth inhibition (%)) of the same compound?
A: 14.7%

Q: And the GI50 (CCRF-CEM; Homo sapiens, five dose)?
A: 26.3 µM

Q: What about the IC50 (CCRF-CEM; Homo sapiens, five dose) of the same compound?
A: 37.2 µM

Q: What about the LC50 (CCRF-CEM; Homo sapiens, five dose) of the same compound?
A: > 100 µM

Q: What about the inhibition at 10 µM (CCRF-CEM; [1]) of the same compound?
A: 13.2%

Q: What about the TGI (CCRF-CEM; five dose) of the same compound?
A: 100 µM

Q: And the GI50 (NCI-H226; Homo sapiens, five dose)?
A: 0.27 µM

Q: What about the IC50 (NCI-H226; Homo sapiens, five dose) of the same compound?
A: 0.871 µM

Q: What about the inhibition at 10 µM (NCI-H226; [1]) of the same compound?
A: 31.2%

Q: And the TGI (NCI-H226; five dose)?
A: 100 µM

Q: And the TGI (COLO 205; five dose)?
A: 100 µM

Q: And the GI50 (COLO 205; Homo sapiens, five dose)?
A: 10.3 µM

Q: And the IC50 (COLO 205; Homo sapiens, five dose)?
A: 17.8 µM

Q: What about the inhibition at 10 µM (COLO 205; [1]) of the same compound?
A: 29.9%

Q: What about the GI50 (SK-OV-3; Homo sapiens, five dose) of the same compound?
A: 12 µM

Q: And the IC50 (SK-OV-3; Homo sapiens, five dose)?
A: 44.7 µM

Q: What about the inhibition at 10 µM (SK-OV-3; [1]) of the same compound?
A: 28.2%

Q: What about the TGI (SK-OV-3; five dose) of the same compound?
A: 100 µM

Q: What about the GI50 (OVCAR-8; five dose) of the same compound?
A: 12 µM

Q: And the IC50 (OVCAR-8; five dose)?
A: 20.4 µM

Q: What about the inhibition at 10 µM (OVCAR-8; single dose 10^−5 M, read-out: Growth inhibition (%)) of the same compound?
A: 25.1%
